From ChEMBL document CHEMBL3621059, “Discovery of 4-Aryl-5,6,7,8-tetrahydroisoquinolines as Potent, Selective, and Orally Active Aldosterone Synthase (CYP11B2) Inhibitors: In Vivo Evaluation in Rodents and Cynomolgus Monkeys” (J Med Chem, 2015)
Converted amounts (≈) assume the structure as drawn. The source made the active and inactive calls. No cut-off for these calls is given here.

Columns and labels:
Rattus norvegicus [1] = organism: Rattus norvegicus; assay: Induction of improvement in glomerular filtration rate in angiotension-2 ZSF1 rat infusion model; type: functional, organism-based
Rattus norvegicus [2] = organism: Rattus norvegicus; assay: Reduction of aldosterone level in angiotension-2 ZSF1 rat infusion model; type: functional, organism-based
Rattus norvegicus [3] = organism: Rattus norvegicus; assay: Induction of improvement in renal histology in angiotension-2 ZSF1 rat infusion model; type: functional, organism-based
[4] = molecular target: T1, Cytochrome P450 11B2, mitochondrial (Mus musculus, UniProt P15539)
T1 sequence (P15539 whole entry): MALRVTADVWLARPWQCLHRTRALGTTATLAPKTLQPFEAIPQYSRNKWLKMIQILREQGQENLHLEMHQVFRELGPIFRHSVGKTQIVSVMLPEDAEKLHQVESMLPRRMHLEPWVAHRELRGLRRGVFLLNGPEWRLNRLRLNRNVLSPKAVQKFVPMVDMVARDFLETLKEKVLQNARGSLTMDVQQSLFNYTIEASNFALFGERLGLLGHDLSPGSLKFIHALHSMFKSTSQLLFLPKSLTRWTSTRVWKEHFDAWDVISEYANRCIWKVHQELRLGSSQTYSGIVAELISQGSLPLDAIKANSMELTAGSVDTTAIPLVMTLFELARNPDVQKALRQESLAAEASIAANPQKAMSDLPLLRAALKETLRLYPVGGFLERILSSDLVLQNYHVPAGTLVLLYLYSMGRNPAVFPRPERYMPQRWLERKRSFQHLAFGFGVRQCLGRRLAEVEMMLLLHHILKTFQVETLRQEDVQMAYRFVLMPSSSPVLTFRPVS
Description: Inhibition of mouse CYP11B2 expressed in renal leiomyoblastoma cells

[5] = molecular target: T2, Cytochrome P450 11B2, mitochondrial (Rattus norvegicus, UniProt P30099); assay: Inhibition of rat CYP11B2 expressed in renal leiomyoblastoma cells at 500 nM relative to control; type: cell-based
T2 sequence (P30099 whole entry): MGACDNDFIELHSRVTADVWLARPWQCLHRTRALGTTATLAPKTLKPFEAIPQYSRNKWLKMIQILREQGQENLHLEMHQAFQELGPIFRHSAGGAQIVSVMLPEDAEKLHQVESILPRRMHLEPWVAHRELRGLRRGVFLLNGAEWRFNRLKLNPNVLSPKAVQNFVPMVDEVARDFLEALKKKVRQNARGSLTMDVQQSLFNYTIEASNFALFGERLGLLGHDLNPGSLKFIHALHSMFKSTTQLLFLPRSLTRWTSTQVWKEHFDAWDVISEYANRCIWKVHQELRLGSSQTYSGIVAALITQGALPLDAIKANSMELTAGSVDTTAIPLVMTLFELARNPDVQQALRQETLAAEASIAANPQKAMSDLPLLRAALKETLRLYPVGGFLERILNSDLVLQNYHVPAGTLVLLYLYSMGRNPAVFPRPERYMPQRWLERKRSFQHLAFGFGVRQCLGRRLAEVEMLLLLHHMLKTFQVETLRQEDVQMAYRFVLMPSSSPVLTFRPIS

[6] = rat, microsomes
Description: Clearance in rat microsomes assessed per mg of protein

[7] = human, microsomes
Description: Clearance in human microsomes assessed per mg of protein

[8] = molecular target: T3, Cytochrome P450 11B2, mitochondrial (Homo sapiens, UniProt P19099)
T3 sequence (P19099 whole entry): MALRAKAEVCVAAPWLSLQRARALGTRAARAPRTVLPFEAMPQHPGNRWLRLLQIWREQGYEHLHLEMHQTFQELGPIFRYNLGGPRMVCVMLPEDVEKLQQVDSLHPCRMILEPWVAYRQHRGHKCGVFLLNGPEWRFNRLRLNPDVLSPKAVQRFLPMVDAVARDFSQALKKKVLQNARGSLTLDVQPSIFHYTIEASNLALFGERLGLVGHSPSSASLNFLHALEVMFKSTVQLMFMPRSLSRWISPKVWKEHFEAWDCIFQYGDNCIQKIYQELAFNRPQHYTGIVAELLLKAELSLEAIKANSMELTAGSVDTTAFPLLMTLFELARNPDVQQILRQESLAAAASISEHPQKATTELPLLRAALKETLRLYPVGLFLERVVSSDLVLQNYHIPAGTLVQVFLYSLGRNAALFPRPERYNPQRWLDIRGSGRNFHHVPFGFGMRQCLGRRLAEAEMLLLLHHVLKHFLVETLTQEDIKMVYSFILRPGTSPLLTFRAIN
Description: Inhibition of human CYP11B2 expressed in human renal leiomyoblastoma cells using 11-deoxycorticosterone as substrate assessed as formation of aldosterone after 16 hrs by HTRF assay

[9] = mouse, microsomes
Description: Clearance in mouse microsomes assessed per mg of protein

physchem [10] = conditions: PAMPA
Description: Permeability of the compound by PAMPA

physchem [11] = conditions: phosphate buffer, pH 6.5
Description: Aqueous solubility of the compound in phosphate buffer at pH 6.5 by LYSA method

physchem [12] = conditions: 1-octanol/TAPSO buffer, pH 7.4
Cytochrome P450 3A4 = Cytochrome P450 3A4 (Homo sapiens, UniProt P08684)
Chain of Cytochrome P450 3A4 (P08684 whole entry): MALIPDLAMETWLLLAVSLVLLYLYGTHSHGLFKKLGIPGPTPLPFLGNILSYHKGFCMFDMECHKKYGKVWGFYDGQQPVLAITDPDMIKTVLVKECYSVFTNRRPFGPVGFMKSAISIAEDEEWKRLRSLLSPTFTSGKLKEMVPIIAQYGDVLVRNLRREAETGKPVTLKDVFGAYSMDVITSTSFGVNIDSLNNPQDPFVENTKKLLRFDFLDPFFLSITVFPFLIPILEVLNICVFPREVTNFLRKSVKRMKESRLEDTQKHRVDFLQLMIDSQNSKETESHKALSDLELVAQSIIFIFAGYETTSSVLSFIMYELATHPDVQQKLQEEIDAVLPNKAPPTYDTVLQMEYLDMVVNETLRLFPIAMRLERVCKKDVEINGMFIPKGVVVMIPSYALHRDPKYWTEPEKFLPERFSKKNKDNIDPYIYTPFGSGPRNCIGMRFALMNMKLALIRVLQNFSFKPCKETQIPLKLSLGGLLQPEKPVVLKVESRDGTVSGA
Description: Inhibition of CYP3A4 (unknown origin)

Cytochrome P450 2D6 = Cytochrome P450 2D6 (Homo sapiens, UniProt P10635)
Chain of Cytochrome P450 2D6 (P10635 whole entry): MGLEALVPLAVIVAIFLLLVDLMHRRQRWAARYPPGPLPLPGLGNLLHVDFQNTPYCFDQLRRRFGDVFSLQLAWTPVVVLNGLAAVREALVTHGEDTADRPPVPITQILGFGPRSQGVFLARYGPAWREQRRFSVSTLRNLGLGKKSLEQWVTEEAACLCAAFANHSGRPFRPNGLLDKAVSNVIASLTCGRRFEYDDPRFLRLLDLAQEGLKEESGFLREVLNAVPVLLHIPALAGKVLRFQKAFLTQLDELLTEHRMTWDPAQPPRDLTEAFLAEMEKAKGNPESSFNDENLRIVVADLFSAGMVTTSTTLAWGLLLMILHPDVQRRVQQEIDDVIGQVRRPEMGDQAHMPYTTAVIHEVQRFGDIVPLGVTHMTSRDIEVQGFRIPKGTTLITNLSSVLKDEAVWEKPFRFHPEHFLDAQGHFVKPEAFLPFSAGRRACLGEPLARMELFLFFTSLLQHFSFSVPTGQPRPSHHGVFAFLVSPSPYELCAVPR
Description: Inhibition of CYP2D6 (unknown origin)

Cytochrome P450 2C9 = Cytochrome P450 2C9 (Homo sapiens, UniProt P11712)
Chain of Cytochrome P450 2C9 (P11712 whole entry): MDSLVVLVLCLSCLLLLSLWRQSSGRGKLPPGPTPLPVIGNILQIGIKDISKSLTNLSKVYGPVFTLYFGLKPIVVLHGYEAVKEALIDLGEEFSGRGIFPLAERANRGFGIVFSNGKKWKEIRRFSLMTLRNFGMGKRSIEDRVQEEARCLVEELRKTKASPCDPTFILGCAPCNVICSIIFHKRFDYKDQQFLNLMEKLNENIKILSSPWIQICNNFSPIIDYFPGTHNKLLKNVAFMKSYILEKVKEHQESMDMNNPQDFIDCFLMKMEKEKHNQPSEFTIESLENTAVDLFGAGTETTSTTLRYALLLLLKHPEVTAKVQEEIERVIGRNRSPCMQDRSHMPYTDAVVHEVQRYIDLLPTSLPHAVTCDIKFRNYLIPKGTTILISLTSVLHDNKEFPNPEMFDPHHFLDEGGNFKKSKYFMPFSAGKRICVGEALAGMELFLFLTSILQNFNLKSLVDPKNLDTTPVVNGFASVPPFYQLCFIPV
Description: Inhibition of CYP2C9 (unknown origin)

Structure (SMILES) | IC50 [4] | inhibition at 0.5 µM [5] | CL [6] | CL [7] | IC50 [8] | CL [9] | Papp (physchem [10]) | solubility (physchem [11]) | logD (physchem [12]) | IC50 (Cytochrome P450 3A4) | IC50 (Cytochrome P450 2D6) | IC50 (Cytochrome P450 2C9) | Activity (Rattus norvegicus [1]) | Activity (Rattus norvegicus [2]) | Activity (Rattus norvegicus [3])
COC(=O)[C@@H]1CC2=CC(=O)CC[C@]2(C)[C@@]23O[C@@H]2C[C@@]2(C)[C@@H](CC[C@@]24CCC(=O)O4)[C@H]13 |  |  |  |  |  |  |  |  |  |  |  |  | Active | Active | Active
CCC(=O)NC1CCCc2c(-c3ccc(Cl)c(F)c3)cncc21 (racemic) |  |  | 31 µg/min | < 10 µg/min | 14 nM | 36 µg/min | > 4 ×10⁻⁶ cm/s | 99 µg/mL (≈ 297 µM) | 3.6 |  |  |  |  |  | 
N#Cc1ccc(-c2cncc3c2CCCC3N)cc1 (racemic) |  |  | < 10 µg/min | < 10 µg/min | 42 nM | 12 µg/min |  |  |  |  |  |  |  |  | 
CC(C)C(=O)NC1CCCc2c(-c3ccc(C#N)cc3)cncc21 (racemic) |  |  | < 10 µg/min | < 10 µg/min |  | < 10 µg/min | > 4.4 ×10⁻⁶ cm/s | 90 µg/mL (≈ 282 µM) | 2.6 | > 50000 nM | > 50000 nM | > 50000 nM |  |  | 
CCC(=O)NC1CCCc2c(-c3cc(F)c(F)cc3F)cncc21 (racemic) |  |  | 78 µg/min | < 10 µg/min | 27 nM | < 10 µg/min | > 4 ×10⁻⁶ cm/s | 239 µg/mL (≈ 715 µM) | 3.1 |  |  |  |  |  | 
CCC(=O)NC1CCCc2c(-c3ccc(F)c(F)c3)cncc21 (racemic) |  |  | 85 µg/min | < 10 µg/min | 47 nM | 17 µg/min | > 4 ×10⁻⁶ cm/s | 310 µg/mL (≈ 980 µM) | 3 |  |  |  |  |  | 

Further lines, with some results ahead:

IC50 [4] | inhibition at 0.5 µM [5] | CL [6] | CL [7] | IC50 [8] | CL [9] | Papp (physchem [10]) | solubility (physchem [11]) | logD (physchem [12]) | IC50 (Cytochrome P450 3A4) | IC50 (Cytochrome P450 2D6) | IC50 (Cytochrome P450 2C9) | Structure (SMILES) | Activity (Rattus norvegicus [1]) | Activity (Rattus norvegicus [2]) | Activity (Rattus norvegicus [3])
210 nM |  |  |  |  |  |  |  |  |  |  |  | N#Cc1ccc([C@H]2CCc3cncn32)c(F)c1 [OSILODROSTAT] |  |  | 
 | 65% |  |  |  |  |  |  |  |  |  |  | O=C1CCc2cc(-c3cncc4ccccc34)ccc2N1 |  |  | 
 |  | < 10 µg/min | < 10 µg/min | 40 nM | 53 µg/min |  |  |  |  |  |  | N#Cc1ccc(-c2cccnc2)cc1 |  |  | 
 |  | < 10 µg/min | < 10 µg/min | 21 nM | < 10 µg/min | > 4.4 ×10⁻⁶ cm/s | 415 µg/mL (≈ 1420 µM) | 1.8 | > 50000 nM | > 50000 nM | > 50000 nM | CC(=O)NC1CCCc2c(-c3ccc(C#N)cc3)cncc21 (racemic) |  |  | 
 |  | 46 µg/min | < 10 µg/min | 28 nM | 21 µg/min | > 4 ×10⁻⁶ cm/s | 129 µg/mL (≈ 388 µM) | 3.6 |  |  |  | CCC(=O)NC1CCCc2c(-c3ccc(Cl)cc3F)cncc21 (racemic) |  |  | 
